Test [1] relates to rats. Kind of test: Chronic constriction injury (CCI)-induced neuropathic pain (Bennett's model), mechanical allodynia, von Frey filaments. The settings on record: CCI of sciatic nerve, mechanical allodynia after 10-15 days, dose 10 mg/kg. The class given is in vivo. As for the experimental part: Chronic Constriction Injury (CCI)—Induced Neuropathic Pain (Bennett's Model):
Chronic constriction injury (CCI) of sciatic nerve in rats induces mechanical allodynia in this Bennet's neuropathic pain model. Rats were anesthetized using ketamine/xylazine (50/5 mg/kg, i.p.) and the left sciatic nerve was exposed at mid thigh level through a small incision. Four loose ligatures of 4-0 chromic cat gut (Ethicon—Johnson & Johnson) at 1 mm space were placed around the sciatic nerve after the bifurcation of common sciatic nerve. After 10-15 days, mechanical allodynia was assessed by measuring hind paw withdrawal thresholds with von Frey filaments. The 50% paw withdrawal threshold was determined using up and down method of Dixon and as per the Chaplan method.

Test [2] relates to rats. The experiment in a line: FCA-induced inflammatory allodynia, paw withdrawal threshold, von Frey filaments. The settings on record: mechanical allodynia 7 days after FCA injection, dose 10 mg/kg. The class given is in vivo. As for the experimental part: FCA (Freund's Complete Adjuvant)—Induced Inflammatory Allodynia:
An emulsion of Freund's Complete Adjuvant (FCA), containing heat killed Mycobacterium tuberculosis (4 mg/ml) in incomplete Freund's adjuvant and saline (1:1) at a final concentration of 2 mg/ml, when injected (150 μl) into the plantar region of the paw of rats induces an inflammatory pain. Mechanical allodynia (7 days after injection) was assessed by measuring hind paw withdrawal thresholds with von Frey filaments. The 50% paw withdrawal threshold was determined using up and down method of Dixon and as per the Chaplan method.

Another test deals with hCB2 (Homo sapiens, UniProt P34972). The experiment in a line: cAMP determination in functional hCB2-CHO stable cells (HTRF). It counts as cell-based. On the technique in general: Time-resolved FRET reads energy transfer from a long-lived donor to a nearby acceptor.
Sequence of hCB2 (P34972 whole entry): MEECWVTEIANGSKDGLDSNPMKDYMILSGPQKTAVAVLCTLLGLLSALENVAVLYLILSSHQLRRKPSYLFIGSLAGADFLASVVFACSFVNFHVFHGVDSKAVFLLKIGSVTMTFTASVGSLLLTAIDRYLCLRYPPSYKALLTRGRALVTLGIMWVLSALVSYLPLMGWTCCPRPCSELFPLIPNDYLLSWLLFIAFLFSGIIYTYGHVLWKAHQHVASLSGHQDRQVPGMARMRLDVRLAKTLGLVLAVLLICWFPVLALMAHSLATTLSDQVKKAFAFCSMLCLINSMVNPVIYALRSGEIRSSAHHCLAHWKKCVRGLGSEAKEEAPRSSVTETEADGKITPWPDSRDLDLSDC

With `Cc1cccc2c(Nc3cccc(Cl)c3)ncc(C(=O)N3CCCCC3)c12` [Example-22, (1-((3-Chlorophenyl)amino)-5-methylisoquinolin-4-yl)(piperidin-1-yl)methanone], in the test on rats [1], the “% Improvement (MEAN ± S.E.M.) in Paw withdrawal Threshold, 1 h” value (“% Improvement … 1 h” for short) is given as 61.8 ± 10.1 % and the “% Improvement (MEAN ± S.E.M.) in Paw withdrawal Threshold, 2 h” value (from here on “% Improvement … 2 h”) is on record as 70.2 ± 9.5 %. In the test on rats [2], the “% Improvement … 1 h” value was 17.7 ± 7.1% and the “% Improvement … 2 h” value is 30.7 ± 8.8 %. Besides, the EC50 – broadly, the concentration at which the effect is half-maximal – on hCB2 was less than 10 nM.

As to `Cc1cccc2c(Nc3cccc(Cl)c3)ncc(C(=O)N3CC4CC(C3)O4)c12` [Example-39, 6-Oxa-3-azabicyclo[3.1.1]heptan-3-yl(1-((3-chlorophenyl)amino)-5-methylisoquinolin-4-yl)methanone], in the test on rats [1], the “% Improvement … 1 h” value is 11.6 ± 12.8% and the “% Improvement … 2 h” value is listed as 0.7 ± 1.1%. Moreover, in the test with rats [2], the “% Improvement … 1 h” value is recorded as 2.10 ± 1.87% and the “% Improvement … 2 h” value was found to be 10.22 ± 4.68%. This compound yielded an EC50 at hCB2 of less than 10 nM.

As to `Cc1cccc2c(Nc3cccc(C(F)(F)F)c3)ncc(C(=O)N3CC4CC(C3)O4)c12` [Example-40, 6-Oxa-3-azabicyclo[3.1.1]heptan-3-yl(5-methyl-1-((3-(trifluoromethyl)phenyl)amino)isoquinolin-4-yl)methanone], in the test with rats [1], the “% Improvement … 1 h” value was found to be 21.6 ± 10.6% and the “% Improvement … 2 h” value worked out at 11.2 ± 2.9%. Moreover, in the test with rats [2], the “% Improvement … 1 h” value was 12.8 ± 4.6% and the “% Improvement … 2 h” value worked out at 13.8 ± 4.5%. Further, the EC50 on hCB2 was less than 10 nM.

The values are drawn from patent US9006442B2, “Cannabinoid receptor modulators” (Lupin Limited, priority 2011, dated 2015).
